Tested on: mouse DTH model
Experiment: Mouse delayed-type hypersensitivity (DTH) model, oxazalone ear swelling
Type: in vivo
Conditions: BALB/c mice, oxazalone challenge of right ear, 24 hr after challenge; histology FIGS. 15C-15D
Method: Mouse DTH in-vivo assay is an inflammatory model which is known as type IV hypersensitivity reactions and is mediated by soluble antigens primarily involving CD4+ or CD8+ T cell activation. This assay is characterized by the release of mediators from activated T cells. The T cells then activate local endothelial cells and recruit macrophages, which results in local inflammation and swelling. In this assay, female BALB/c mice were sensitized on the shaved abdominal skin with 100 μl of 2% oxazalone dissolved in acetone/olive oil [4:1 (vol/vol)] applied topically (day 0). DTH sensitivity was elicited 6 days later by challenging the mice with 20 μl of 0.5% oxazalone in acetone/olive oil, 10 μl administered topically to each side of the right ear. Control group was subcutaneously injected with Dexamethasone 100 μg/mouse in a total volume of 200 μl. 24 hr after challenge the swelling of the right ear was measured using a Micrometer, digital caliper (Mitutoyo Corp, Tokyo, Japan). The swelling of the left ear was served as control and the readout of this experiment model was the delta between the right and left ear (FIG. 15E).

For `OC1(c2ccc(Cl)c(C(F)(F)F)c2)CCN(CCCC(c2ccc(F)cc2)c2ccc(F)cc2)CC1` [Penfluridol], the “effect in mouse DTH model” value was “pro-inflammatory effect”.
